Experimental data from ChEMBL document CHEMBL5512604, “Small molecules targeting selected histone methyltransferases (HMTs) for cancer treatment: Current progress and novel strategies” (Eur J Med Chem, 2024).

Columns and labels:
MDA-MB-453 = assay: Antiproliferative activity against human MDA-MB-453 cells assessed as inhibition of cell viability incubated for 5 days by CCK8 assay; format: functional, cell-based; conditions: MDA-MB-453, 120 h
[1] = biological target: Histone-lysine N-methyltransferase EZH2 (Homo sapiens, UniProt Q15910); assay: Displacement of [3H-SAM] from full-length EZH2 (2 to 746 residues) (unknown origin) using a core histone substrate
[2] = biological target: von Hippel-Lindau disease tumor suppressor/Histone-lysine N-methyltransferase EZH2 (Homo sapiens, UniProt Q15910+P40337); assay: PROTAC activity at VHL/EZH2 in human MDA-MB-453 cells assessed as protein degradation incubated for 48 hrs by Western blot analysis; format: cell-based
[3] = biological target: T1, Histone-lysine N-methyltransferase EZH1 (Homo sapiens, UniProt Q92800); assay: Displacement of [3H-SAM] from full-length EZH1 (2 to 746 residues) (unknown origin) using a core histone substrate
T1 sequence (Q92800 whole entry): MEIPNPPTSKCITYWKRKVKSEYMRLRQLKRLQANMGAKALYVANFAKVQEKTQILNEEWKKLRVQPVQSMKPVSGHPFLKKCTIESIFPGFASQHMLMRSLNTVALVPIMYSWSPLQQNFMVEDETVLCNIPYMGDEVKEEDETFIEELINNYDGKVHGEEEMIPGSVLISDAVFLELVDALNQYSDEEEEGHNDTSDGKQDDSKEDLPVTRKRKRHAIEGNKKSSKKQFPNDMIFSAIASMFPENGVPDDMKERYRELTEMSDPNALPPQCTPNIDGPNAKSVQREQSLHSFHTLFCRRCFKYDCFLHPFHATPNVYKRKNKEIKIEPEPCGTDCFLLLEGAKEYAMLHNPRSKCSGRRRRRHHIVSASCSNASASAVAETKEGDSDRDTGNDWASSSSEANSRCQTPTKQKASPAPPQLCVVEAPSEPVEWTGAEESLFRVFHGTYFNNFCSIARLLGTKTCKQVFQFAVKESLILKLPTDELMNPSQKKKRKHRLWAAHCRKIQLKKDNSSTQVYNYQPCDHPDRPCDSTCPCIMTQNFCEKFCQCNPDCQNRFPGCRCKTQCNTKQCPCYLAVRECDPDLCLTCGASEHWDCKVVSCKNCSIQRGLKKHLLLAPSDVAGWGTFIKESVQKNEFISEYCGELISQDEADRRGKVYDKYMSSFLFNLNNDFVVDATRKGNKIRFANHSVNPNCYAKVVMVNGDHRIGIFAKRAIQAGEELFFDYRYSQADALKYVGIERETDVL

[4] = biological target: Protein arginine N-methyltransferase 5 (Homo sapiens, UniProt O14744); assay: Inhibition of PRMT5 (unknown origin) by HotSpot profiling analysis
SU-DHL-6 [5] = assay: Potency index, ratio of EPZ6438 IC50 to test compound IC50 for antiproliferative activity against human SU-DHL-6 cells; format: functional
SU-DHL-6 [6] = assay: Antiproliferative activity against human SU-DHL-6 cells; format: functional, cell-based
[7] = biological target: T2, Histone-lysine N-methyltransferase EHMT2 (Homo sapiens, UniProt Q96KQ7); assay: Inhibition of G9a in human MDA-MB-231 cells assessed as decrease in H3K9Me2 level by ICW assay; format: cell-based
T2 sequence (Q96KQ7 whole entry): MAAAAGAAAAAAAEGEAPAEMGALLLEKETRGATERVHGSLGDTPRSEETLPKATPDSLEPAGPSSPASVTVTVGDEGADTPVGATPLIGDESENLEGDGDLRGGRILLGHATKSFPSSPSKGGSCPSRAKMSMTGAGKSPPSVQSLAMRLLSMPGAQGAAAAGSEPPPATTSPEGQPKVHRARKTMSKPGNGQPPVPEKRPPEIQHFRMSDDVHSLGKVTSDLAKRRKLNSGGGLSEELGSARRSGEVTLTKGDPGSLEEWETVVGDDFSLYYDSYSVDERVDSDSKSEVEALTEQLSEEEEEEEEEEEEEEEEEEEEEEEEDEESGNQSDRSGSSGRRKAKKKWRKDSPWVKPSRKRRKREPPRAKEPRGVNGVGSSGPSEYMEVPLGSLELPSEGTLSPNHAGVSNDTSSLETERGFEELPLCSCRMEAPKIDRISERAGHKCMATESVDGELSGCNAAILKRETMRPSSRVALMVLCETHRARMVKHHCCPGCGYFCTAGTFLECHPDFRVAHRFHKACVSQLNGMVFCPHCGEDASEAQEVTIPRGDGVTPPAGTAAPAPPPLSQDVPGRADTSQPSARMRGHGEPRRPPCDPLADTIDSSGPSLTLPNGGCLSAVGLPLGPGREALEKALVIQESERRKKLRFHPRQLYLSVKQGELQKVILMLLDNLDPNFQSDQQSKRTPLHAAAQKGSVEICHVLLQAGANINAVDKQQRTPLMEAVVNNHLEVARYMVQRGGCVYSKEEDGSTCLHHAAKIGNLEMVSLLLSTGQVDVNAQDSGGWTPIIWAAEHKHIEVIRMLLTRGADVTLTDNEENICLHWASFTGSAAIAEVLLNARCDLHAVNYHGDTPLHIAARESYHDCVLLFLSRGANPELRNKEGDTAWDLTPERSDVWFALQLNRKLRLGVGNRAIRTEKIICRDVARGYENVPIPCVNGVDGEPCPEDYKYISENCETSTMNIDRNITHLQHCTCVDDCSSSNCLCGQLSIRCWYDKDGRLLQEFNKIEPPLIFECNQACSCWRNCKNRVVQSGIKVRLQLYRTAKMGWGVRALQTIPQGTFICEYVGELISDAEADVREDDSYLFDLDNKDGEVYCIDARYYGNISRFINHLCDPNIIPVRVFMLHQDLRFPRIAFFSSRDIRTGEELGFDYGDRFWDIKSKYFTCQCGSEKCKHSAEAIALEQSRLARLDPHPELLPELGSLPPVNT

A549 = assay: Antiproliferative activity against human A549 cells assessed as inhibition of cell growth incubated for 72 hrs; format: functional, cell-based; conditions: A549, 72 h
Histone deacetylase [8] = assay: Inhibition of HDAC in human K562 cells using Boc-K(Ac)-AMC as substrate; format: cell-based
Histone deacetylase [9] = assay: Inhibition of HDAC in human HeLa cells using Boc-K(Ac)-AMC as substrate; format: cell-based
MDA-MB-231 = assay: Antiproliferative activity against human MDA-MB-231 cells assessed as inhibition of cell growth incubated for 72 hrs; format: functional, cell-based; conditions: MDA-MB-231, 72 h
MCF7 = assay: Antiproliferative activity against human MCF7 cells assessed as inhibition of cell growth incubated for 72 hrs; format: functional, cell-based; conditions: MCF7, 72 h
in vitro = conditions: human, HEK293 cells
[10] = biological target: Bromodomain-containing protein 4 (Homo sapiens, UniProt O60885); assay: Induction of BRD4 degradation in human 231MFP cells; format: cell-based

Protein arginine N-methyltransferase 5, sequence (O14744 whole entry): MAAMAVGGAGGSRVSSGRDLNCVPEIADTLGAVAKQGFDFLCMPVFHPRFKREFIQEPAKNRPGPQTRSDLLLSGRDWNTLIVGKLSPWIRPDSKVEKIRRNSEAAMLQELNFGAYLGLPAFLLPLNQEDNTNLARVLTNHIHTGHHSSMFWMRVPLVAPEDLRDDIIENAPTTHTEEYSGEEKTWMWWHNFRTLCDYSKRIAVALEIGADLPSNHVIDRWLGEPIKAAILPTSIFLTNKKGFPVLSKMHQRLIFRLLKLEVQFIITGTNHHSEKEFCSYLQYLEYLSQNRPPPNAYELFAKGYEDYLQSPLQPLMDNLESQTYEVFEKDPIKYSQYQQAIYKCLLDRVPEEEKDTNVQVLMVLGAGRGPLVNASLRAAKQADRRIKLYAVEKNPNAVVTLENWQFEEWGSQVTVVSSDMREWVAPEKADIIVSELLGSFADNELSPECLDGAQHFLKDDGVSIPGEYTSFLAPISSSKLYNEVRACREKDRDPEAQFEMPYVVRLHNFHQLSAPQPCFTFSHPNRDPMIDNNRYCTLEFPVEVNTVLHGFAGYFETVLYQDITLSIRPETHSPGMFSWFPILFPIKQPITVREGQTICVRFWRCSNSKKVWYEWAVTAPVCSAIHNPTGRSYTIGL
von Hippel-Lindau disease tumor suppressor/Histone-lysine N-methyltransferase EZH2, sequence (Q15910 whole entry, the tested form may be a part): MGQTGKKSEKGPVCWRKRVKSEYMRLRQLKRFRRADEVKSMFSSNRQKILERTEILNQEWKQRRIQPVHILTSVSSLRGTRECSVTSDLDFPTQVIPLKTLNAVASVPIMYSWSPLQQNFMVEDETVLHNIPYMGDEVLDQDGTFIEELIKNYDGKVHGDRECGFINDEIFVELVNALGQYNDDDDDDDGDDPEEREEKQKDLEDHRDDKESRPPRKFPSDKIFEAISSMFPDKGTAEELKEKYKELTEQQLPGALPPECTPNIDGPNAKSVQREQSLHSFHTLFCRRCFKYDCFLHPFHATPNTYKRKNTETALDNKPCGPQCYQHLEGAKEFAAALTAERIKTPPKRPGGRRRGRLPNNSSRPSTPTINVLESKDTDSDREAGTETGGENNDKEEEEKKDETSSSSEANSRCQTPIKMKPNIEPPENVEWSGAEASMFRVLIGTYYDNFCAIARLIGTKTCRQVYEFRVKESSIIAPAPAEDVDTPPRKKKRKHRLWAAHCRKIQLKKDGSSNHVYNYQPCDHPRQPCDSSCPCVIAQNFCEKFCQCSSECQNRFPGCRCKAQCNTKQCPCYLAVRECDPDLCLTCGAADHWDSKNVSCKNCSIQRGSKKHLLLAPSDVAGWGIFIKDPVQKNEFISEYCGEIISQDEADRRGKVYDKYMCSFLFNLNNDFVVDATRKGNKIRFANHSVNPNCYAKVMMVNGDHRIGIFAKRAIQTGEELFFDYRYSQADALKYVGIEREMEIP
von Hippel-Lindau disease tumor suppressor/Histone-lysine N-methyltransferase EZH2, sequence (P40337 whole entry, the tested form may be a part): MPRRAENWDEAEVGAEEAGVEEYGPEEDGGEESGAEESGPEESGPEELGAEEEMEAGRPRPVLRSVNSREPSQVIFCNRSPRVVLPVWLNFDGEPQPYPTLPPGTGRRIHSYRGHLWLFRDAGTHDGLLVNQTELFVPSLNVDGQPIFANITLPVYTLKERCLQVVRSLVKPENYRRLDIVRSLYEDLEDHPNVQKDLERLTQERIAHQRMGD
Histone-lysine N-methyltransferase EZH2, sequence (Q15910 whole entry, the tested form may be a part): as the sequence (Q15910 whole entry, the tested form may be a part) above

Structure (SMILES): CCN(c1cc(-c2ccc(CN3CCN(C(=O)CCCCCCCC(=O)N[C@H](C(=O)N4C[C@H](O)C[C@H]4C(=O)NCc4ccc(-c5scnc5C)cc4)C(C)(C)C)CC3)cc2)cc(C(=O)NCc2c(C)cc(C)[nH]c2=O)c1C)C1CCOCC1
- IC50 (MDA-MB-453): 2.3 µM
- IC50 [1]: 0.062 µM
- DC50 [2]: 0.14 µM
- IC50 [3]: 0.0086 µM

Structure (SMILES): N=C(N)NCCC[C@H](N)C(=O)NCC(=O)N[C@@H](CCCN)C(=O)N[C@H](CCCNC(=N)NCCCSC[C@H]1O[C@@H](n2cnc3c(N)ncnc32)[C@H](O)[C@@H]1O)C(N)=O
- IC50 [4]: 0.00042 µM

Structure (SMILES): CCN(c1cc(-c2ccc(CN3CCN(C(=O)c4cnn(CCOCCOCCOCCNC(=O)CN5CCN(C(=O)N6C(c7ccc(OC)cc7OC(C)C)=N[C@H](c7ccc(Cl)cc7)[C@@H]6c6ccc(Cl)cc6)CC5=O)n4)CC3)cc2)cc(C(=O)NCc2c(C)cc(C)[nH]c2=O)c1C)C1CCOCC1
- Ratio IC50 (SU-DHL-6 [5]): 6
- IC50 (SU-DHL-6 [6]): 3.75 µM

Structure (SMILES): COc1cc2nc(NCCNC(=O)CCCCC(=O)NO)nc(NC3CCN(Cc4ccccc4)CC3)c2cc1OC
- IC50 [7]: 7.14 µM
- IC50 (A549): 10 µM
- IC50 (Histone deacetylase [8]): 5.73 µM
- IC50 (Histone deacetylase [9]): 13.8 µM
- IC50 (MDA-MB-231): 10 µM
- IC50 (MCF7): 10 µM
- IC50 at 72 h (in vitro): 19.9 µM

Structure (SMILES): Cc1sc2c(c1C)C(c1ccc(Cl)cc1)=N[C@H](CC(=O)NCCCCOc1ccc(C3CC(c4ccc(Br)cc4)=NN3C(=O)CCl)cc1)c1nnc(C)n1-2 (stereo partly specified)
- DC50 [10]: 14 µM

Structure (SMILES): CCN(c1cc(-c2ccc(CN3CCOCC3)cc2)cc(C(=O)NCc2c(C)cc(C)[nH]c2=O)c1C)C1CCOCC1 [TAZEMETOSTAT]
- IC50 (SU-DHL-6 [6]): 21.9 µM
